According to paper PMC11472388 (ACS Medicinal Chemistry Letters, 2024):
“And” between values parts separate entries of the source, which are not always exact repeats. Equal entries are not always repeated. Where two headings read alike, the source gives them in different places. Where a SMILES comes first, the peptide text is derived from it. Bridges are numbered along the chain shown (N, C = ends). [ ]: non-standard residue; d: D form. The star is where a group is joined. βGlc = OC[C@H]1O[C@@H](*)[C@H](O)[C@@H](O)[C@@H]1O; 1Nal = N[C@@H](Cc1cccc2ccccc12)C(=O)O

What was measured:
[1] = In vivo microdialysis and plasma pharmacokinetics (BBB penetration); set-up: species or system Sprague-Dawley rats; details: rat, 10 mg/kg i.v.; for AUC Brain (estimated CSF, brain dialysate): striatal dialysate 0-60 min
Procedure: Following intravenous bolus injection, AUC, Cmax, half-life, and Tmax were determined in plasma and CSF dialysate, and the CSF/plasma ratios for AUC of the analogs were compared (Table 1).
Blood Brain Barrier Penetration and Pharmacokinetics
Animals: Male, Sprague-Dawley rats (225-325, n = 3/group; Envigo RMC Inc., Indianapolis, IN were used for in vivo microdialysis and pharmacokinetic experiments. Rats were co-housed in a temperature/humidity-controlled room on a 12-h reversed light/dark cycle. Food and water were available ad libitum. Animal studies were approved by The University of Arizona Institutional Animal Care and Use Committee, in accordance with NIH’s Care and Use of Laboratory Animals […]
Carotid Artery Catheterization and Microdialysis Surgery: Both procedures were performed in the same anesthetic event in accordance with our previous studies, with one exception, the left carotid artery was catheterized in each animal.2
In Vivo Microdialysis and Plasma Sampling: Blood-brain-barrier penetration and […]
same time to minimize injection site variations and individual differences between the animals. […]
following changes (Figure S3). 2, 4 The microdialysis probe (FZ-8-04; Amuza, San Diego, CA) was inserted into the striatum and perfused with aCSF (15 mM Tris HCl, 10 mM Tris base, 126 mM NaCl, 2.5 KCl, 1.2 mM NaH 2PO4, 2mM Na 2SO4, and adjusted pH to 7.4) at a rate of 0.5 µL/minute using one channel of a dual syringe pump (Fusion 101A Syringe Pump; Chemyx, Stafford, TX).
Boise, ID) and injected via the lateral tail vein. Brain dialysate samples used to estimate CSF were collected over 10 minutes, where t = 0 corresponds to the injection: t = -10, 0, 10, 20, 30, 40, 50, and 60 minutes. Blood was sampled to correspond with the median timepoint of the dialysate fraction, where t = 0 corresponds to the injection: t = -5, 0, 1, 5, 15, 25, 35, 45, and 55 […]
minutes. To separate plasma from whole blood, each sample was collected in ethylenediamine tetraacetic acid capillary tubes (CT-CB300-K2EDTA; Sarstedt, Nümbrecht, Germany), inverted repeatedly for 30 seconds, and centrifuged for 10 minutes at 2,000 x g in a refrigerated centrifuge (Galaxy Mini Centrifuge; VWR, Radnor, PA).
Brain dialysate (5 μL) and plasma (5 μL) were mixed with 5 μL and 50 μL of preservation solution […]
Enkephalin), respectively, and then vortexed for 10 seconds. 90 μL of cold acetone and deionized water (75:25, v/v) was added to precipitate dialysate and plasma proteins. After vortexing for 30 seconds, samples were centrifuged at 13,000 rpm for 15 minutes at 4 °C. The supernatant was evaporated using a Savant Speedvac concentrator. Dialysate and plasma samples were reconstituted in a 20 μL and 200 μL diluent (2% acetonitrile and 0.1% formic acid in deionized water), respectively. Samples were injected into the ThermoFisher UHPLC-MS/MS TSQ system.
Chromatographic separation was achieved on an ACQUITY UPLC HSS T3 C18 Column (100 Å, 1.8 µm, 2.1 X 100 mm) and VanGuard pre-column (HSS T3 1.8 μm, 2.1 X 5 mm) with the temperature set at 20 ℃. A water-acetonitrile gradient with a 0.3 mL/minute flow rate was used.
The mobile phases used were A: 0.1% v/v formic acid in deionized water and B: 0.1% v/v formic acid in acetonitrile. An injection volume of 8 µL was used. Detection was achieved using a Thermo Fisher TSQ Fortis Plus mass spectrometry instrument with an H-ESI ion source. The instrument was operated in a positive ion mode. The MRM mode was used for quantification using target […]
protonated ZH853 (MW 809.92 gmol-1). Concentrations were calculated using the response factor-concentration plot. Pharmacokinetic parameters, including the area under the curve (AUC), maximum plasma concentration (Cmax), the time to reach Cmax (Tmax), and half-life (t1/2), were […]
(§1) using the microdialysis probe recovery rate. All data are presented as mean ± SEM.

[2] = molecular target: T1, mu opioid receptor (MOR) (Homo sapiens, UniProt P35372); assay: Opioid receptor binding (NIMH PDSP), MOR
T1 construct: NIMH Psychoactive Drug Screening Program (PDSP)
T1 sequence (P35372 whole entry): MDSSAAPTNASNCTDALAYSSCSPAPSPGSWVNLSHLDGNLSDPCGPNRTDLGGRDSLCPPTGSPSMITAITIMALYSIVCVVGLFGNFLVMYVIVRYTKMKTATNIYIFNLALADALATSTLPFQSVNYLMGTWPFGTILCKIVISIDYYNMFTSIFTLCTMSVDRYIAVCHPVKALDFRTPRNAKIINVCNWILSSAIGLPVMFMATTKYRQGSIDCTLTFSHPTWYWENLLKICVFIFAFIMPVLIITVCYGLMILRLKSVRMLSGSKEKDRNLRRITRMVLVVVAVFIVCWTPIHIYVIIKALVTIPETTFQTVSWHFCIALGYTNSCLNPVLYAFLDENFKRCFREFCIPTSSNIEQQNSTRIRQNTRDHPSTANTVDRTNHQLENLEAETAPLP
Text: (§2) Ki determinations at the 3 canonical opioid receptors, MOR, DOR. and KOR. were generously performed by the NIMH Psychoactive Drug Screening Program (PDSP), directed by Bryan L. Roth at the University of North Carolina at Chapel Hill and Project Officer Jamie Driscoll at NIMH, Bethesda. MD.

[3] = molecular target: T2, kappa opioid receptor (KOR) (Homo sapiens, UniProt P41145); assay: Opioid receptor binding (NIMH PDSP), KOR
T2 construct: NIMH Psychoactive Drug Screening Program (PDSP)
T2 sequence (P41145 whole entry): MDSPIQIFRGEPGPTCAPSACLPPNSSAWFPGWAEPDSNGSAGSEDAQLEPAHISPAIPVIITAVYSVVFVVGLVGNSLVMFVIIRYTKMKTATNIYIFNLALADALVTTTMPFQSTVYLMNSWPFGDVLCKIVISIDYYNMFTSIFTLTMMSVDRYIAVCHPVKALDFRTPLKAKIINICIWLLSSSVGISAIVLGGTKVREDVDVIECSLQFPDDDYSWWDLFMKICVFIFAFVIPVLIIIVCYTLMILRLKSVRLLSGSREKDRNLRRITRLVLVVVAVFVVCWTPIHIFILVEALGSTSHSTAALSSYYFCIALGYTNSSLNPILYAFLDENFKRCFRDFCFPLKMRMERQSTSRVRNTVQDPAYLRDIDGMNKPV
Text: as §2

[4] = system: male and female CD-1 mice; assay: Tail flick (TF) antinociception; format: in vivo; details: for ED50: Mus musculus, sc
Text: as §1
For the dialysate, the mean
Animals: Male and female CD-1 and DBA mice, 21–29 g at testing, were obtained from Charles River (Wilmington, MA) and housed in a 12-h light/dark cycle. All experiments were approved by the Tulane Institutional Animal Care and Use Committee and conducted according to the NIH Guide for the Care and Use of Laboratory Animals. All efforts were made to minimize animal suffering and to reduce the number of animals used.
Tail Flick (TF): CD1 mice were used for this test. The latency to withdraw the tail from a heat source was automatically measured (IITC, Woodland Hills, CA). […]
with a cutoff time of 9 s to prevent tissue damage. Percent Maximum Possible Effect (%MPE) was determined as [(latency-baseline latency)/(9-baseline latency)]*100. […]
(§3) calculated and used as the peak response for determining ED50’s. Initial tests, based on previous studies with ZH853, were 3h in duration.
(§4) Additional subgroups (n = 4-5) were therefore tested for 5h. […] For the time course (Figure 3) […]
(§5) animals were used. Duration of antinociception was assessed using both the area under the curve (AUC) and duration of antinociception, calculated as the time from the first to the last time point greater than or equal to 50% MPE.
(§6) Hot Plate (HP) Test: This test reflects a supraspinally organized complex response, 6 and was used to assess the CNS activation of antinociception by peripherally (s.c.) administered […]
(§7) to reduce test compound requirements. The HP apparatus (IITC, Woodland Hills, CA) was set to 55.5°C, a temperature that elicited a response after 7-9 sec. Three baseline HP latencies to rapidly lift, lick, or shake the hind paws were taken prior to drug injection. Mice were removed from the HP after a maximum of 30 sec. Mice were injected with several analogs (0–5.6 mg/kg s.c.) and tested from 30–300 min after injection.
(%MPE) as described for TF.

[5] = system: male and female DBA mice; assay: animal or person; format: in vivo; details: for ED50: Mus musculus, sc
Procedure: as §3, §4, §5, §6, §7
(%MPE) as described for TF. […]
each of those respective times was therefore calculated and used as the peak response for determining ED50’s. These values were used to calculate area under the curve (AUC). The duration of antinociception greater than 50% MPE was calculated as with TF.
Figure S3. Microdialysis and Pharmacokinetics Experiment Scheme.
Scheme depicts catheterization and microdialysis of the rat striatum. […]
endomorphin-1 analog (10 mg/kg; i.v.) ZH853 = ZH853•HCl (10 mg/kg; i.v.); aCSF = artificial cerebrospinal fluid. Created with BioRender.com (Agreement number MH26RXD2YP).
(1 picture or pasted object on this page, not shown here)

[6] = molecular target: T3, delta opioid receptor (DOR) (Homo sapiens, UniProt P41143); assay: Opioid receptor binding (NIMH PDSP), DOR
T3 construct: NIMH Psychoactive Drug Screening Program (PDSP)
T3 sequence (P41143 whole entry): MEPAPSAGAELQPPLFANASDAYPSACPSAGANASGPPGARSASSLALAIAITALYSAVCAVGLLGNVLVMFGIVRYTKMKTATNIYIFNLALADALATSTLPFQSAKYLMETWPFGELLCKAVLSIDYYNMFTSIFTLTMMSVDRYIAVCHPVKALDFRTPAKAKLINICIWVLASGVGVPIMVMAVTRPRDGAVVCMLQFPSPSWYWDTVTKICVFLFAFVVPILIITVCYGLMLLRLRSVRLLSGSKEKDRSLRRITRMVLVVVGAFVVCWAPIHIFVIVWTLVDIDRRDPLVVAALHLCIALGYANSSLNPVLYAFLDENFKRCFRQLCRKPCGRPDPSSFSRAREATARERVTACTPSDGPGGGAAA
Text: as §2

[7] = molecular target: T4, MOR (Homo sapiens, UniProt P35372); assay: Gi signaling (inhibition of cAMP) in opioid-receptor-expressing HEK cells, MOR; format: cell-based
T4 construct: host or cells: HEK cells expressing the receptor (from the earlier reading's assay name)
T4 sequence (P35372 whole entry): as the sequence (P35372 whole entry) above
Procedure: (§8) Opioid-receptor-specific functional activity was assessed in cyclicAMP (cAMP) assays by PDSP.

[8] = molecular target: T5, DOR (Homo sapiens, UniProt P41143); assay: Gi signaling (inhibition of cAMP) in opioid-receptor-expressing HEK cells, DOR; format: cell-based
T5 construct: host or cells: HEK cells expressing the receptor (from the earlier reading's assay name)
T5 sequence (P41143 whole entry): as the sequence (P41143 whole entry) above
Procedure: as §8

[9] = molecular target: KOR (Homo sapiens, UniProt P41145); assay: cell-based; details: HEK cells; means and SEMs of 3–6 assays; read-out: IC50 KOR (κ), cAMP
KOR, sequence (P41145 whole entry): as the sequence (P41145 whole entry) above

[10] = male, Sprague-Dawley, iv, brain dialysate, read-out: Tmax Brain (dialysate) (converted)
[11] = male, Sprague-Dawley, iv, plasma, read-out: Tmax Plasma (converted)
[12] = male, Sprague-Dawley, brain dialysate, iv, 10 mg/kg, brain dialysate, read-out: Half-life Brain (dialysate)
[13] = male, Sprague-Dawley, plasma, iv, 10 mg/kg
[14] = male, Sprague-Dawley, plasma, iv, 10 mg/kg, plasma 0-55 min, n=3
[15] = male, Sprague-Dawley, plasma, iv, 10 mg/kg, plasma, read-out: Half-life Plasma
[16] = tail flick, 10 mg/kg morphine, 1.8 mg/kg A2

## NC(=O)[C@H](CO[C@@H]1O[C@H](CO)[C@@H](O)[C@H](O)[C@H]1O)NC(=O)[C@@H]1CCC(=O)NCCCC[C@@H](NC(=O)[C@@H](N)Cc2ccc(O)cc2)C(=O)N[C@@H](Cc2c[nH]c3ccccc23)C(=O)N[C@@H](Cc2ccccc2)C(=O)N1 [Analog A1]
[1]; [10]
  Tmax: 5 min
[1]; [11]
  Tmax: 1 min
[1]; [12]
  half-life: 16.6 ± 7.9 min
[1]; [13]
  Cmax: 15.7 ± 7.4 µM
[1]; [14]
  AUC: 2.62 µM·h
[1]; [15]
  half-life: 25.9 ± 5.7 min
[1]; 0-55 min
  AUC of plasma, increase over ZH853: ~ 1.5 fold
[1]; 0-60 min
  AUC of estimated CSF, increase over ZH853: ~ 8 fold
[1]; brain dialysate, 10 mg/kg
  Cmax Brain (dialysate): 10.8 ± 6.5 µM and 11 ± 7 µM
[1]; n=3, 10 mg/kg
  AUC Brain (estimated CSF, brain dialysate): 141.0 ± 69.2 µM·min and 141 ± 69 µM·min

## NC(=O)[C@H](CO[C@@H]1O[C@H](CO)[C@@H](O)[C@H](O)[C@H]1O)NC(=O)[C@@H]1CCC(=O)NCCCC[C@@H](NC(=O)[C@@H](N)Cc2ccc(O)cc2)C(=O)N[C@@H](Cc2cccc3ccccc23)C(=O)N[C@@H](Cc2ccccc2)C(=O)N1 [Analog A6] (H-Y[dK][1Nal]FES(βGlc)-NH2; lactam 2-5; N-terminus assumed)
[2]; relative to unglycosylated peptides
  Shift (reduction) of MOR affinity by glycosylation: ~5 fold

## NC(=O)[C@H](CO)NC(=O)[C@@H]1CCC(=O)NCCCC[C@@H](NC(=O)[C@@H](N)Cc2ccc(O)cc2)C(=O)N[C@@H](Cc2c[nH]c3ccccc23)C(=O)N[C@@H](Cc2ccccc2)C(=O)N1 [Analog A8]
[3]
  Ki: 1260 ± 145 nM

## CN1CC[C@]23c4c5ccc(O)c4O[C@H]2[C@@H](O)C=C[C@H]3[C@H]1C5 [morphine]
[4]; female CD-1 mice, %MPE at peak response, read-out: Tail flick ED50 Female
  ED50: 1.57 ± 0.35 mg/kg
[4]; female CD-1 mice, read-out: Tail flick ED50 Female
  ED50: 4.69 ± 1.08 µmol/kg
[4]; male CD-1 mice, read-out: Tail flick ED50 Male
  ED50: 3.74 ± 0.39 µmol/kg
[4]; tail flick
  Time of peak response: 20 to 30 min
[4]; tail flick, 5.6 mg/kg
  Duration of antinociception: ~2 h
[4]; [16]
  Antinociception at matched doses: 100 %MPE
  Duration of antinociception at matched doses: > 3 h
[5]; female DBA mice, %MPE at peak response, read-out: Hot plate ED50 Female
  ED50: 2.33 ± 0.18 mg/kg
[5]; female DBA mice, read-out: Hot plate ED50 Female
  ED50: 6.99 ± 0.52 µmol/kg
[5]; male DBA mice, %MPE at peak response, read-out: Hot plate ED50 Male
  ED50: 2.82 ± 0.24 mg/kg
[5]; male DBA mice, read-out: Hot plate ED50 Male
  ED50: 8.43 ± 0.73 µmol/kg
[5]; hot plate
  Time of peak response: 30 to 45 min

## NC(=O)CNC(=O)[C@@H]1CCC(=O)NCCCC[C@@H](NC(=O)[C@@H](N)Cc2ccc(O)cc2)C(=O)N[C@@H](Cc2c[nH]c3ccccc23)C(=O)N[C@@H](Cc2ccccc2)C(=O)N1 [ZH853]
[1]; [10]
  Tmax: 28 min
[1]; [11]
  Tmax: 2 min
[1]; [12]
  half-life: 6.1 ± 0.7 min
[1]; [13]
  Cmax: 16.5 ± 3 µM
[1]; [14]
  AUC: 1.83 µM·h
[1]; [15]
  half-life: 15.9 ± 2.3 min
[1]
  AUC CSF/Plasma ratio: 0.189
[1]; brain dialysate, 10 mg/kg
  Cmax Brain (dialysate): 1.5 ± 0.2 µM and 2 ± 0.2 µM
  Half-life Brain (dialysate): 6 ± 0.7 min
[1]; plasma 0-55 min, n=3, 10 mg/kg
  AUC Plasma: 110 ± 37 µM·min
[1]; plasma, 10 mg/kg
  Cmax: 17 ± 3 µM
  Half-life Plasma: 16 ± 2 min
[1]; n=3, 10 mg/kg
  AUC Brain (estimated CSF, brain dialysate): 20.7 ± 7.9 µM·min and 21 ± 8 µM·min
[2]
  Ki: 0.61 ± 0.2 nM
[2]; mean ± SEM of 3 replicate assays
  Ki MOR (μ): subnanomolar
[2]; ratio of Ki
  Selectivity δ/μ (binding): 631
  Selectivity κ/μ (binding): 2353
[6]
  Ki: 385 ± 61 nM
[3]
  Ki: 1440 ± 306 nM
[7]
  IC50: 0.07 ± 0.04 nM
[7]; ratio of IC50
  Selectivity δ/μ (cAMP): 5220
  Selectivity κ/μ (cAMP): 31460
[8]
  IC50: 377 ± 166 nM
[9]
  IC50: 2270 ± 273 nM
